Data taken from patent publication US20210238173A1, “MITOGEN-ACTIVATED PROTEIN KINASE KINASE 7 INHIBITORS” (Yeda Research and Development Co. Ltd., priority 2018, published 2021).
Where “and” joins values, the source holds several entries; their conditions need not be identical. Equal values may be shown once.

Legend:
MKK7 = target: T1, MKK7 (Homo sapiens, UniProt O14733); assay: In vitro kinase activity assay for MKK7 (Nanosyn); format: biochemical; details: read-out: MKK7 IC50 in vitro
T1 construct: purchased Nanosyn (contract assay)
T1 sequence (O14733 1-419): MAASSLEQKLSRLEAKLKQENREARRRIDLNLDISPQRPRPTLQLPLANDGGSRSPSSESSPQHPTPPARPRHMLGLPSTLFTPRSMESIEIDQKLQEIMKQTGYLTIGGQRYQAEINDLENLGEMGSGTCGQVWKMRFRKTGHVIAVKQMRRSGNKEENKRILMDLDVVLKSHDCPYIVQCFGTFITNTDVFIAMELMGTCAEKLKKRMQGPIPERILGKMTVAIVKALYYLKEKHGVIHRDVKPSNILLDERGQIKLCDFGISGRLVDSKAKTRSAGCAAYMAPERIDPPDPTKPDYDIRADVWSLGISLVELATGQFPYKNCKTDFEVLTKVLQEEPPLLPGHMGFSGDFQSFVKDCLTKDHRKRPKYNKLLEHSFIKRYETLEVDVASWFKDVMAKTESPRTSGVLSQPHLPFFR
Procedure: Based on visual inspection of the top 500 predictions, 10 compounds were selected for synthesis and testing (see, Table 1). The “Docking rank” is given in its respective run, whereas four virtual libraries of acrylamides were docked separately, based on the amine precursor for the acrylamide (primary or secondary aliphatic amines, primary or secondary aromatic amines). In vitro kinase activity assay was carried out by Nanosyn, as described below.
In Vitro Activity Assays for MKK7 or MKK4 (Carried by Nanosyn):
Exemplary test compounds, according to some embodiments of the present invention, were diluted in DMSO to a final concentration that ranged from 10 μM to 0.0565 nM, while final concentration of DMSO in all assays was kept at 1%. Reference compound, Staurosporine, was tested in a similar manner. […] After incubation, activity of now activated JNK1 was tested in the presence of 30 μM ATP ATP for 17 h (MKK7) or 4 h (MKK4).

pJNK in HEK293 cells = assay: In-cell western (ICW) pJNK inhibition in HEK293; format: cell-based; details: Homo sapiens, HEK293, HEK293, ICW, 2 h pre-incubation, sorbitol stimulation
Procedure: (§1) HEK293, Beas2B and 3T3 cells were plated 24 hours before procedure on 384 well clear bottom black flat plates (Corning) pre-coated with Fibronectin (Sigma) diluted in PBS to a concentration of 5 μg/ml 45 minutes prior to cells introduction. Cells were plated using Multidrop™ Combi reagent dispenser (Thermo Fisher Scientific). Compound, reagents and antibody dispensing as well as washes were performed with a CyBio liquid handler (Analytik). Cells were pre-incubated with a small molecule or up to 1% DMSO for 2 h before fixation. HEK293, 3T3 or Beas2B cells were treated with 0.6M/0.2M/0.2M D-Sorbitol/PBS (Sigma) for 20/40/40 min. respectively, before fixation. Media was removed and wells were immediately fixed with 150 μl per well of 3.7% formaldehyde/PBS fixing solution for 20 min. Formaldehyde was then aspired and cells were permeabilized with 150 μl of 0.5% Triton x-100/PBS solution for 10 min. After aspiration cells were washed with ice-cold methanol and stored at −20° C., for 10 min. Methanol was aspired and cells were blocked with 150 μl blocking buffer (LICOR) for 90 min. Primary antibody Phospho-SAPK/JNK T183/Y185 (CST; 9251S) was diluted 1:1000 in blocking buffer and was applied 50 μl per well, except control wells to which only blocking buffer was applied, O.N. (16 h) at 4° C. with mild shaking. Primary antibody was aspired, wells were washed with 150 μl 0.1% Tween20/PBS (Sigma) washing solution three times for 7 min. IRDye® 800CW Goat anti-Rabbit IgG Secondary antibody (LICOR) was then diluted 1:1200 in blocking buffer with 50 μl applied per well on control wells only (no CellTag control), then CellTag700 (1:2000) was added to the solution and 50 μl were added to all experiment wells, for 1 h at room temperature. Wells were aspired and washed again with 150 μl 0.1% Tween20/PBS (Sigma) washing solution three times for 7 min. plate was dried and scanned with Odyssey CLx imaging system at 700 nm and 800 nm (Licor). Wells signals were analyzed with Odyssey software. The signal was normalized by the CellTag700 signal.
(§2) To rapidly assess the cellular activity (EC50) with full dose response curves of the MKK7 covalent inhibitors, according to some embodiments of the present invention, an in-cell western assay was adapted to a 384 well plate format over traditional western blot, and monitored phospho-JNK (pJNK) levels in response to osmotic shock. We first characterized the dynamics of pJNK in response to sorbitol. Sufficient dynamic range for pJNK is achieved at 20 minutes in HEK293 cells and at 40 minutes in 3T3 and Beas2B cells. The compound's activity was assessed by pre-treating cells with either compound or DMSO for 2 hours, followed by Sorbitol stimulation. The response of pJNK, and its substrates, pc-Jun and pATF2, was measured, as well as pP38, which is a substrate of MKK4 but not MKK7, and pERK in HEK293 cells, and the results are presented in Table 5 below.

[1] = Metabolic stability in dog liver microsomes; format: in vitro ADME; details: for half-life: dog, liver microsomes
Source text: (§3) A reference compound, REF1250, was used in this study: […]

[2] = Metabolic stability in mouse liver microsomes; format: in vitro ADME; details: for half-life: mouse, liver microsomes
Source text: as §3

[3] = Metabolic stability in monkey liver microsomes; format: in vitro ADME
Source text: as §3

[4] = Metabolic stability in human liver microsomes; format: in vitro ADME; details: for half-life: human, liver microsomes
Source text: as §3

[5] = Metabolic stability in rat liver microsomes; format: in vitro ADME; details: for half-life: rat, liver microsomes
Source text: as §3

pJNK in 3T3 WT cells = assay: In-cell western (ICW) pJNK inhibition in 3T3 WT; format: cell-based; details: for EC50: 3T3 WT, ICW, 2 h pre-incubation, sorbitol stimulation
Procedure: as §1, §2
Wildtype 3T3 cells, 3T3 MKK7 double knock-out (MKK7^−/−) cells and MKK4/7 double knockouts (MKK4/7^−/−) were used to validate on target activity of the MKK7 covalent inhibitors presented herein.

Row | Structure (SMILES) | IC50 (MKK7) | EC50 (pJNK in HEK293 cells) | % remaining @ 40 min [1] | % remaining @ 40 min [2] | half-life [2] | % remaining @ 40 min [3] | % remaining @ 40 min [4] | half-life [4] | % remaining @ 40 min [5] | half-life [5] | also measured
1 | C=CC(=O)Nc1cccc2[nH]ncc12 [GO1] | > 10000 nM |  |  |  |  |  |  |  |  |  | 
2 | C=CC(=O)NC1CCC(c2nc(-c3ccccc3)n[nH]2)CC1 (centres unmarked) [GO2] | > 10000 nM |  |  |  |  |  |  |  |  |  | 
3 | C=CC(=O)Nc1ccc(N2CCNC2=O)cc1 [GO5] | 502 nM |  |  |  |  |  |  |  |  |  | 
4 | C=CC(=O)N1CCC(c2c[nH]c3ncccc23)CC1 [GO6] | > 10000 nM |  |  |  |  |  |  |  |  |  | 
5 | C=CC(=O)Nc1ccc2c(c1)C(=O)NC2 [GO7] | 873 nM |  |  |  |  |  |  |  |  |  | 
6 | C=CC(=O)NCC1CCCN(c2cc(NC)ncn2)C1 (centres unmarked) [GO8] | > 10000 nM |  |  |  |  |  |  |  |  |  | 
7 | C=CC(=O)NCC1CCCN1c1cc(NC)ncn1 (centres unmarked) [GO9] | > 10000 nM |  |  |  |  |  |  |  |  |  | 
8 | C=CC(=O)N1CCN(CC2=NC(C)N=N2)CC1 (centres unmarked) [GO10] | > 10000 nM |  |  |  |  |  |  |  |  |  | 
9 | C=CC(=O)N1CCOC(c2nc(CCC)n[nH]2)C1 (centres unmarked) [GO14] | > 10000 nM |  |  |  |  |  |  |  |  |  | 
10 | C=CC(=O)Nc1cccc(-c2n[nH]c3c([N+](=O)[O-])cccc23)c1 [GO29] | 27 nM | > 10000 nM |  |  |  |  |  |  |  |  | 
11 | C=CC(=O)Nc1cccc(-c2n[nH]c3c2CCC3)c1 [GO49] | 73 nM |  |  |  |  |  |  |  |  |  | 
12 | C=CC(=O)Nc1cccc(-c2n[nH]c3c2CC(C)(C)CC3)c1 [GO54] | 10 nM | 3300 nM | 1% | 18% | 11 min | 1% | 20% | 16 min | 4% | 8 min | half-life [1]: 6 min; half-life [3]: 5 min
13 | C=CC(=O)Nc1cccc(-c2n[nH]c3c2COCC3)c1 [GO55] | 64 nM | > 10000 nM | 6% | 4% | 8 min | 0% | 13% | 13 min | 40% | 29 min | half-life [1]: 9 min; half-life [3]: < 5 min
14 | C=CC(=O)Nc1cccc(-c2n[nH]c3c2CN(C(=O)OC(C)(C)C)CC3)c1 [GO61] | 193 nM | > 10000 nM |  |  |  |  |  |  |  |  | 
15 | C=CC(=O)Nc1cccc(-c2n[nH]c3c2CNCC3)c1 [GO64] | 2460 nM | > 10000 nM |  |  |  |  |  |  |  |  | 
16 | C#CCCCC(=O)N1CCc2[nH]nc(-c3cccc(NC(=O)C=C)c3)c2C1 [GO65] | 30 nM |  |  |  |  |  |  |  |  |  | 
17 | C=CC(=O)Nc1cc(-c2n[nH]c3ccccc23)ccc1C [GO72] | 26 nM | 4200 nM | 0% | 0% | < 5 min | 0% | 11% | 12 min | 0% | < 5 min | half-life [1]: < 5 min; half-life [3]: < 5 min
18 | C=CC(=O)Nc1cc(C#N)cc(-c2n[nH]c3ccccc23)c1 [GO73] | 4 nM |  | 0% | 0% | < 5 min | 0% | 0% | < 5 min | 0% | < 5 min | half-life [1]: < 5 min; half-life [3]: < 5 min
19 | CN(C)C/C=C/C(=O)Nc1cccc(-c2n[nH]c3ccccc23)c1 [GO74] | 267 nM |  |  |  |  |  |  |  |  |  | 
20 | C=CC(=O)Nc1cccc(-c2n[nH]c3c(C)cccc23)c1 [GO81] | 812 nM |  |  |  |  |  |  |  |  |  | 
21 | C=CC(=O)Nc1cccc(-c2n[nH]c3cc(OC)ccc23)c1 [GO83] | 11 nM |  | 0% | 0% | 5 min | 0% | 1% | < 5 min | 48% | 35 min | half-life [1]: < 5 min
22 | C=CC(=O)Nc1cccc(-c2n[nH]c3c(F)cccc23)c1 [GO88] | 4 nM | 1800 nM | 0% | 0% | < 5 min | 0% | 0% | < 5 min | 2% | 7 min | half-life [1]: < 5 min; half-life [3]: < 5 min
23 | C=CC(=O)Nc1cccc(-c2n[nH]c3c(Cl)cccc23)c1 [GO89] | 47 nM |  | 0% | 0% | < 5 min | 0% | 3% | 8 min | 1% | 6 min | half-life [3]: < 5 min
24 | C=CC(=O)Nc1cccc(-c2n[nH]c3cc(-c4ccccc4)ccc23)c1 [GO101] | 11 nM | 1000 nM |  |  |  |  |  |  |  |  | 
25 | C=CC(=O)Nc1cccc(-c2n[nH]c3cc(Cl)ccc23)c1 [GO106] | 5 nM | 3000 nM | 0% | 0% | < 5 min | 0% | 0% | < 5 min | 17% | 16 min | half-life [1]: < 5 min; half-life [3]: < 5 min
26 | C=CC(=O)Nc1cc(C(=O)O)cc(-c2n[nH]c3ccccc23)c1 [PCM476] |  |  | 100% | 100% |  | 100% | 100% |  | 61% |  | EC50 (pJNK in 3T3 WT cells): > 10000 nM; activity in ICW in 3T3 cells (pJNK in 3T3 WT cells): inactive; Halflife [1]: >40 min; Halflife [2]: >40 min; Halflife [3]: >40 min; Halflife [4]: >40 min; Halflife ([4]; listed as PCM76): more than 40 min; Halflife [5]: >40 min
27 | C=CC(=O)N[C@H]1CCCN(c2[nH]nc3ccccc23)C1 [PCM531] |  | > 10000 nM |  |  |  |  |  |  |  |  | activity in ICW in 3T3 cells (pJNK in 3T3 WT cells): inactive
28 | C=CC(=O)Nc1cc(C(=O)N(C)C)cc(-c2n[nH]c3ccccc23)c1 [PCM549] |  |  |  |  |  |  |  |  |  |  | EC50 (pJNK in 3T3 WT cells): > 10000 nM
29 | COc1cc(OC)cc(C(C#N)(CCCN(C)CCc2ccc(OC)c(OC)c2)C(C)C)c1 (centres unmarked) [REF1250, reference compound] |  |  | 12% and 5% | 2% and 1% | 7 min | 0% | 5% and 3% | 9 min | 3% and 1% | 8 min | half-life [1]: 12 min; Halflife [2]: 6 min; half-life [3]: < 5 min; Halflife [5]: 6 min
